Columns and labels:
[1] = system: Calloselasma rhodostoma venom; test: Thrombelastography in human plasma of venom procoagulant activity after isolated exposure of venom to compounds; type: biochemical; details: venom exposed to 100 μM carboplatin, 100 μM CORM-2 or both; venom 5 μg/ml in plasma
Procedure: (§1) Thrombelastographic analyses. The volumes of subsequently described plasmatic and other additives summed to a final volume of 360 μl. Samples were composed of 320 μl of plasma; 16.4 μl of PBS, 20 μl of 200 mM CaCl2), and 3.6 μl of PBS or venom mixture, which were pipetted into a disposable cup in a Thrombelastograph® hemostasis system (Model 5000, Haemonetics Inc., Braintree, MA, USA) at 37° C., and then rapidly mixed by moving the cup up against and then away from the plastic pin five times. The following viscoelastic parameters described previously (see, Nielsen V G (2019) J Thromb Thrombolysis 47, 73-79; Gessner G, et al., (2017) Eur J Pharmacol 815, 33-41; Nielsen V G, Wagner M T, Frank N (2020) Int J Mol Sci 21, 2082; Lazić D, Arsenijević A, Puchta R, Bugarčić ŽD, Rilak A (2016) Dalton Trans 45, 4633; Hanif M, et al., (2017) ChemPlusChem 82, 841-847) were measured: time to maximum rate of thrombus generation (TMRTG): this is the time interval (minutes) observed prior to maximum speed of clot growth; maximum rate of thrombus generation (MRTG): this is the maximum velocity of clot growth observed (dynes/cm^2/second); and total thrombus generation (TTG, dynes/cm^2), the final viscoelastic resistance observed after clot formation.
C. rhodostoma. […] The final concentration of this venom in plasma was 5 μg/ml.
(§2) Given the aforementioned, the experimental conditions utilized were: 1) V condition—venom in PBS; 2) Ru(II) condition—venom exposed to CORM-2; 3) Ru(III) condition—venom exposed to RuCl3; 4) Ru(II+III) condition—venom exposed to CORM-2 and RuCl3 simultaneously. After the 5 minute period at room temperature, 3.6 μl of one of these solutions was added to the plasma sample in the plastic thrombelastograph cup.
(§3) The volumes of subsequently described plasmatic and other additives summed to a final volume of 360 μl. Samples were composed of 320 μl of plasma; 16.4 μl of PBS, 20 μl of 200 mM CaCl2), and 3.6 μl of PBS or venom mixture, which were pipetted into a disposable cup in a Thrombelastograph® hemostasis system (Model 5000, Haemonetics Inc., Braintree, MA, USA) at 37° C., and then rapidly mixed by moving the cup up against and then away from the plastic pin five times. The following viscoelastic parameters described previously (see, Nielsen, V. G. J Thromb Thrombolysis 2019, 47, 73-79; Gessner, G.; et al., Eur J Pharmacol 2017, 815, 33-41; Nielsen, V. G.; Wagner, M. T.; Frank, N. Int J Mol Sci 2020, 21, 2082; Lazid, D.; et al., Dalton Trans 2016, 45, 4633; Hanif, M.; et al., ChemPlusChem 2017, 82, 841-847) were measured: time to maximum rate of thrombus generation (TMRTG): this is the time interval (minutes) observed prior to maximum speed of clot growth; maximum rate of thrombus generation (MRTG): this is the maximum velocity of clot growth observed (dynes/cm2/second); and total thrombus generation (TTG, dynes/cm2), the final viscoelastic resistance observed after clot formation.
C. rhodostoma. […] This venom was also exposed to 0 or 100 μM CORM-2 in the presence of 0 or 100 μM carboplatin in another series of experiments. The final concentration of this venom in plasma was 5 μg/ml.

Bothrops moojeni venom = test: as above; type: biochemical; details: venom exposed to 100 μM carboplatin, 1 mM CORM-2 or both; venom 2 μg/ml in plasma
Procedure: as §1
(§4) B. moojeni. This venom was exposed to 0 or 1 mM CORM-2 in the presence of 0 or 100 μM RuCl3 in PBS for at least 5 minutes at room temperature prior to placement into plasma followed immediately with commencement of thrombelastographic analysis. The final concentration of this venom in plasma was 2 μg/ml.
as §2, §3
as §4, with “CORM-2 or CORM-3” for “CORM-2”, “analysis. This venom was also exposed to 0 or 1 mM CORM-2 in the presence of 0 or 100 μM carboplatin in another series of experiments.” for “analysis.”
Given the aforementioned, the experimental conditions utilized were: 1) V condition—venom in PBS; 2) Ru(II) condition—venom exposed to CORM-2 or CORM-3; 3) Ru(III) condition—venom exposed to RuCl3; 4) Ru(II+III) condition—venom exposed to CORM-2 or CORM-3 and RuCl3 simultaneously; 5) Pt(II) condition—venom exposed to carboplatin; and 6) Pt+Ru condition—venom exposed to carboplatin and CORM-2.

N.N.O=C([O-])C1(C(=O)[O-])CCC1.[Pt+2] [carboplatin, reference compound]
procoagulant activity of venom [1]: no significant effect | coagulation kinetic parameters (Bothrops moojeni venom): no significant change in any of the coagulation kinetic parameters

Source: patent US20260216239A1 (Arizona Board of Regents on Behalf of the University of …, priority 2020, published 2026)
